Test results taken from ChEMBL document CHEMBL3632469, “Discovery of dihydroquinazolinone derivatives as potent, selective, and CNS-penetrant M(1) and M(4) muscarinic acetylcholine receptors agonists” (Bioorg Med Chem Lett, 2015).

Experiments:
Assay type in all cases: functional, cell-based
[1] = biological target: T1, Muscarinic acetylcholine receptor M4 (Homo sapiens) (UniProt P08173); test: Partial agonist activity at human muscarinic M4 acetylcholine receptor expressed in CHO cells co-expressing Galpha16 assessed as calcium mobilization at 0.3 uM by FLIPR assay
T1 sequence (whole entry): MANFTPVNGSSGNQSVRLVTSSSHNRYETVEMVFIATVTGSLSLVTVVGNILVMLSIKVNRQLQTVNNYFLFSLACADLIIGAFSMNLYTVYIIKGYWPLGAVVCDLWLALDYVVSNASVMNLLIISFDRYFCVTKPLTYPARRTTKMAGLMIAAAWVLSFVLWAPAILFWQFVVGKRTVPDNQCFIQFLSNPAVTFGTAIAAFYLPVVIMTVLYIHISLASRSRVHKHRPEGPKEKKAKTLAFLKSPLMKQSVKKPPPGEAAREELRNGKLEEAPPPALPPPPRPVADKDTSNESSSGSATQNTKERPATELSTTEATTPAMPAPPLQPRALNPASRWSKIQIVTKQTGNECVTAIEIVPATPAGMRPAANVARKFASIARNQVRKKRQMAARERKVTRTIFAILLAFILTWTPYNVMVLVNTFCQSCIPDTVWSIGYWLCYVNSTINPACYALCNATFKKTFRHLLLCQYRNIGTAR

[2] = biological target: T2, Muscarinic acetylcholine receptor M1 (Homo sapiens) (UniProt P11229); test: Agonist activity at human muscarinic M1 acetylcholine receptor expressed in CHO cells assessed as calcium mobilization at 0.3 uM by FLIPR assay
T2 sequence (whole entry): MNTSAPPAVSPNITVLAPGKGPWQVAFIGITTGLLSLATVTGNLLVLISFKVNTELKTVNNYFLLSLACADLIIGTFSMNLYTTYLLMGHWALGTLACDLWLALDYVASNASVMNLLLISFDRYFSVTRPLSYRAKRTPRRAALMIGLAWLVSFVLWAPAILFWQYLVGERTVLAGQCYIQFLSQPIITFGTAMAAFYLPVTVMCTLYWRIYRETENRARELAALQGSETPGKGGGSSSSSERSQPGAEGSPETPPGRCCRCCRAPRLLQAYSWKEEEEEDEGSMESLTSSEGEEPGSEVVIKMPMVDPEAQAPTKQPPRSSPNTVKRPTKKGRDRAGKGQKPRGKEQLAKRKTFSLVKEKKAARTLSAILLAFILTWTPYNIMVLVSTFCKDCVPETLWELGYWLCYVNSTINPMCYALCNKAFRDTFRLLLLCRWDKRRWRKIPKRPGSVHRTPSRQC

[3] = biological target: Muscarinic acetylcholine receptor M3 (Homo sapiens) (UniProt P20309); test: Agonist activity at human muscarinic M3 acetylcholine receptor expressed in CHO cells assessed as calcium mobilization at 0.3 uM by FLIPR assay
Muscarinic acetylcholine receptor M3 (Homo sapiens), sequence (P20309 whole entry, looked up): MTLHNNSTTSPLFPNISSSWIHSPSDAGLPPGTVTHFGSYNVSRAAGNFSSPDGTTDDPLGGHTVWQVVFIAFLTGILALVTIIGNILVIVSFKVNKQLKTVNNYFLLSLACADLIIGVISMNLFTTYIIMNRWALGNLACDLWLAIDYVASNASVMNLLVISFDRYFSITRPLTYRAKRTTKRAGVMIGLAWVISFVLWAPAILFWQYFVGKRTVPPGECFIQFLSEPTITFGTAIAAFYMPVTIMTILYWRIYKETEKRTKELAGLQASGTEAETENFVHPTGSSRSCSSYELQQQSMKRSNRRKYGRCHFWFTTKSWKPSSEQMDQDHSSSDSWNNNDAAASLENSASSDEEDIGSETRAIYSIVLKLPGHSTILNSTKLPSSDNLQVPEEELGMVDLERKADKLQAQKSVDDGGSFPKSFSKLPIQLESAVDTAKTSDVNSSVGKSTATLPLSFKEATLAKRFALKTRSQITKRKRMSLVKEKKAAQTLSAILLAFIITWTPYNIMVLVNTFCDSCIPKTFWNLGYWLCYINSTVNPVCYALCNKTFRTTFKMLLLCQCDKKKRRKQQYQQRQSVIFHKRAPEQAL

[4] = biological target: T3, Muscarinic acetylcholine receptor M2 (Homo sapiens) (UniProt P08172); test: Agonist activity at human muscarinic M2 acetylcholine receptor expressed in CHO cells co-expressing Galpha16 assessed as calcium mobilization at 0.3 uM by FLIPR assay
T3 sequence (whole entry): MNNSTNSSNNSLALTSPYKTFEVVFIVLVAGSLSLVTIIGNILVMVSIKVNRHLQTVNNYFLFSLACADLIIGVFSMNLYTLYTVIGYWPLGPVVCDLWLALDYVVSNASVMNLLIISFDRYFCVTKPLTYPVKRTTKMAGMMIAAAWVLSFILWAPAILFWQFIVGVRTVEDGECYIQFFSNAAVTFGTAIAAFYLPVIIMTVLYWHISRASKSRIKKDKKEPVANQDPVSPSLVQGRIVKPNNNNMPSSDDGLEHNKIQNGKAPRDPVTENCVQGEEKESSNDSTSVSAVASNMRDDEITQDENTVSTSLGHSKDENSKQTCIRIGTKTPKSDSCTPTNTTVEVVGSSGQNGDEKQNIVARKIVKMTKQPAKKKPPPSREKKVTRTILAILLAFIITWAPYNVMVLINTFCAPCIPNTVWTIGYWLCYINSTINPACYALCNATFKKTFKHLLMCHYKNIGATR

[5] = biological target: T4, Muscarinic acetylcholine receptor M5 (Homo sapiens) (UniProt P08912); test: Agonist activity at human muscarinic M5 acetylcholine receptor expressed in CHO cells assessed as calcium mobilization at 10 uM by FLIPR assay
T4 sequence (whole entry): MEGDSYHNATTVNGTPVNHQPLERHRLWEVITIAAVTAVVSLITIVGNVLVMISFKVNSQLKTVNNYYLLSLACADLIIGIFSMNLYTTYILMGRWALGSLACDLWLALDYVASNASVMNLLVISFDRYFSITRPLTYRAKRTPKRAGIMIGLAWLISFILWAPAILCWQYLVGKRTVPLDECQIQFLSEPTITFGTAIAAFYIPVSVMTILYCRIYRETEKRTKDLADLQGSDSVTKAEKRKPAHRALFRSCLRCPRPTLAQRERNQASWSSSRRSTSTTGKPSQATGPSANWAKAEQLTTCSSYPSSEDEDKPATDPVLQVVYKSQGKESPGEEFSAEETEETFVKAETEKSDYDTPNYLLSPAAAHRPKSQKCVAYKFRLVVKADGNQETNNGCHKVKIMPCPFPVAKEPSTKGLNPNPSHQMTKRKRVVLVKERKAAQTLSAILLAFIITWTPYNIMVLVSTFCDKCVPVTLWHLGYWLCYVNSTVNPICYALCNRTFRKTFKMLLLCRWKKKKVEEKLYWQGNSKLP

[6] = biological target: T1, Muscarinic acetylcholine receptor M4 (Homo sapiens); test: Partial agonist activity at human muscarinic M4 acetylcholine receptor expressed in CHO cells co-expressing Galpha16 assessed as calcium mobilization at 30 uM by FLIPR assay

| Activity [1] | Activity [2] | Activity [3] | Activity [4] | Activity [5] | Activity [6] | SMILES |
| --- | --- | --- | --- | --- | --- | --- |
| 115% | 105% | 1% | 17% |  |  | CCOC(=O)N1CCC(CN2CC(N3Cc4ccccc4NC3=O)C2)CC1 |
| 91% | 95% | 2% | 53% | 3% |  | CCOC(=O)N1CCC(CN2CC[C@@H](N3Cc4ccccc4NC3=O)C2)CC1 |
| 114% | 86% | 21% | 66% | 31% |  | CCOC(=O)N1CCC(N2CCC(N3Cc4ccccc4NC3=O)CC2)CC1 |
| 64% | 87% | 1% | 12% |  | 65% | CCOC(=O)N1[C@@H]2CC[C@H]1C[C@H](CN1CC(N3Cc4ccccc4NC3=O)C1)C2 |
| 66% | 82% | 7% | 39% |  |  | CCOC(=O)N1CCC(CN2CCC(N3Cc4ccccc4NC3=O)CC2)CC1 |
| 30% | 62% | 3% | 2% |  |  | CCOC(=O)N1CCC(CN2CC[C@H](N3Cc4ccccc4NC3=O)C2)CC1 |
